{"source": "patent US11446269B2", "about": "“Methods of reducing or preventing oxidation of small dense LDL or membrane polyunsaturated fatty acids” (Amarin Pharmaceuticals Ireland Limited, priority 2014, dated 2022)", "key": {"[1]": {"test": "Glucose-induced membrane lipid peroxidation (LOOH, CHOD-iodide assay) in DLPC/cholesterol multilamellar vesicles (Example 4)", "format": "biochemical", "conditions": "glucose 200 mg/dL", "description": "Vitamin E (α-tocopherol) was also purchased from Sigma-Aldrich and prepared in ethanol at 1.0 mM (ε=3.06×10^4 M^−1 cm^−1 at 294 nm) just prior to experimental use. […] All test compounds were further diluted in ethanol or aqueous buffer as needed. Glucose was prepared in saline buffer (0.5 mM HEPES, 154 mM NaCl, pH 7.3) at 11.0 mM (200 mg/dL). CHOD-iodide color reagent (stock) was prepared, with slight modification, as described by from El-Saadani et al. (J. […] Samples were shell-dried under nitrogen gas and placed under vacuum for 1 h to remove residual solvent. […] Lipid suspensions were then vortexed for 3 min at ambient temperature to form MLVs. All MLV samples were subjected to time-dependent autoxidation by incubating at 37° C. in an uncovered, shaking water bath. This method allows lipid peroxidation to occur gradually without requiring the use of exogenous initiators. Small aliquots (5-100 μL) of each sample were removed, immediately following MLV preparation (0 hour) and after exposing samples to oxidative conditions for 72 or 96 hour, and combined with 1.0 mL of activated CHOD-iodide color reagent. Aliquot volume was reduced with each successive time point to ensure that spectrophotometric readings were within the optimal adsorption range. Test samples were covered and incubated in darkness at room temperature for at least 4 hr. Sample absorbances were then measured against a CHOD blank at 365 nm using a Beckman DU-640 spectrophotometer. The CHOD colorimetric assay is based on the oxidation of iodide (I^−) by lipid hydroperoxide (LOOH) to form triiodide (I3^−), the quantity of which is directly proportional to the amount of LOOH present in the lipid sample. The molar absorptivity (c) of I3^− is 2.46×10^4 M^−1 cm^−1 at 365 nm. […] The concentration of glucose selected was consistent with previous experimental studies of hyperglycemia under controlled laboratory conditions or observed in well-defined animal models of Type II diabetes following a glucose challenge. […] Values in FIG. 1 are mean±S.D. (N=6). EPA inhibited the peroxidative effects of glucose by 88% and 86% at 72 and 96 hours, respectively, which was highly significant (p<0.001) as compared to glucose treatment alone. […] Overall ANOVA—0 hour data: p=0.6655, F=0.4185; 72 hour data: p<0.0001, F=428.72; 96 hour data: p<0.0001, F=322.01."}, "human sdLDL [2]": {"test_system": "human sdLDL", "test": "Copper-induced sdLDL oxidation, TBARS (Example 7)", "format": "biochemical", "conditions": "1 hr; for effect on sdLDL oxidation: 10 μM, vs vehicle-treated controls", "description": "(§1) An experiment to study the antioxidant effect of EPA in LDL and small dense […] performed. […] Fenofibrate, gemfibrozil, and niacin were purchased from Sigma-Aldrich. […] Vitamin E was also incubated with sample aliquots as a positive control."}, "[3]": {"test": "X-ray diffraction of cholesterol domains in POPC/cholesterol model membranes, C/P 1.5:1 (Example 9)", "conditions": "drug-to-phospholipid mole ratio 1:30, C/P 1.5:1", "description": "Multilamellar vesicles (MLVs) were prepared as binary mixtures that include palmitoyloleoylphosphatidylcholine (POPC) (1.0 mg total phospholipid per sample) and cholesterol at an elevated cholesterol-to-phospholipid (C/P) mole ratio of 1.5:1. […] Samples were shell-dried under nitrogen gas and placed under vacuum for 3 hours to remove residual solvent at room temperature. After desiccation, each sample was resuspended in saline buffer (0.5 mM HEPES, 154 mM NaCl, pH 7.3) to yield a final phospholipid concentration of 2.5 mg/mL. Lipid suspensions were then vortexed for 3 minutes at ambient temperature to form MLVs.\nBriefly, a 100 μL aliquot of each MLV preparation (containing 250 μg MLV) was transferred to a Lucite® sedimentation cell fitted with an aluminum foil substrate designed to collect MLVs into a single membrane pellet upon centrifugation. Samples were then loaded into a Sorvall AH-629 swinging bucket rotor (DuPont Corp., Wilmington, Del.) and centrifuged at 35,000 g, 5° C., for 90 minutes.\nAfter centrifugal orientation, sample supernatants were aspirated and aluminum foil substrates, each supporting a single membrane pellet, were removed from the sedimentation cells. Sample pellets were dried for 5-10 minutes at ambient conditions, mounted onto curved glass supports, and placed in hermetically-sealed, brass or glass containers (for immediate analysis or temporary storage, respectively). All x-ray diffraction experiments were conducted at 20° C., 74% relative humidity. The latter was established by exposing membrane samples to saturated solutions of […] (K2C4H4O6.½H2O) for at least 1 hour prior to experimental analysis.\nOriented membrane samples were aligned at grazing incidence with respect to a collimated, mono-chromatic CuKα x-ray beam (Kα1 and Kα2 unresolved; λ=1.54 Å) produced by a Rigaku Rotaflex RU-200, high-brilliance microfocus generator (Rigaku-MSC, The Woodlands, Tex.) as previously described (Mason et al., Biophys. J., vol. 55(4), pages 769-778 (1989)). The samples were initially subjected to x-ray diffraction analysis at least 12 hours after formation of the membrane pellets and retested for up to several days. Analytical x-rays were generated by electron bombardment of a rotating copper anode and are filtered through a thin nickel foil to provide monochromatic radiation (λ=1.54 Å). Collimation of the x-ray beam was achieved using a single Franks mirror. […]\nThe d-space for any given membrane multi bilayer is a measurement of the unit cell periodicity of the membrane lipid bilayer (e.g., the distance from the center of one lipid bilayer to the next including surface hydration), and is calculated from Bragg's Law, hλ=2d sin θ, where h is the diffraction order, λ is the wavelength of the x-ray radiation (1.54 Å), d is the membrane lipid bilayer unit cell periodicity, and θ is the Bragg angle equal to one-half the angle between the incident beam and scattered beam.\nThe presence of cholesterol domains in a given membrane sample results in the production of distinct Bragg (diffraction) peaks having singular periodicity values of 34 and 17 Å (typically referred to as first- and second-order cholesterol domain peaks). Under the specific temperature and relative humidity conditions established for these experiments, the second-order, 17 Å cholesterol domain peak was well-delineated from other, neighboring cholesterol and phospholipid diffraction peaks and was thus used to quantitate relative cholesterol domain peak intensity. […]"}, "sdLDL": {"test_system": "sdLDL", "test": "Glucose-induced sdLDL oxidation, MDA/TBARS (Example 10)", "format": "biochemical, human", "conditions": "glucose 200 mg/dL; for effect on glucose-induced sdLDL oxidation: 10.0 μM", "description": "Vitamin E (α-tocopherol) purchased from Sigma-Aldrich was prepared in ethanol at 1.0 mM (ε=3.06×10^4 M^−1 cm^−1 at 294 nm) prior to experimental use. Test compounds were further diluted in ethanol or aqueous buffer as needed. Phosphate Buffered Saline (PBS) purchased from Sigma-Aldrich was prepared in double distilled water at 10 mM (138 mM NaCl, 2.7 mM KCl, pH 7.4). […] Lipid oxidation was measured by the colorimetric detection of malondialdehyde (MDA), a marker of oxidative stress."}, "unfractionated LDL [4]": {"test_system": "unfractionated LDL", "test": "Copper-induced oxidation of unfractionated LDL, TBARS (Example 7)", "format": "biochemical, human", "conditions": "10 μM, 1 hr, vs vehicle-treated controls", "description": "as §1"}, "unfractionated LDL [5]": {"test_system": "unfractionated LDL", "test": "Copper-induced oxidation of unfractionated LDL, TBARS after 2 hr (Example 6)", "format": "biochemical, human", "conditions": "1.0 μM to 10.0 μM (data not shown)", "description": "Venous blood was collected from healthy volunteers into vacutainer tubes containing sodium EDTA. […] Plasma and lipoprotein fractions were maintained at 4° C. and protected from excessive exposure to light. Prior to oxidation experiments, EDTA was removed from the lipoprotein fraction using PD-10 desalting columns (GE Healthcare, Piscataway N.J.). After equilibration of the column with phosphate buffered saline (PBS), 2.5 mL of the lipoprotein fraction was loaded on the column and the flow-through discarded. The lipoprotein was then eluted with 3 mL of PBS. The LDL fractions were further diluted with PBS to obtain a 100 μg/mL apoB100 concentration."}, "human sdLDL [6]": {"test_system": "human sdLDL", "test": "Copper-induced sdLDL oxidation, TBARS after 2 hr (Example 6)", "format": "biochemical", "description": "Venous blood was collected from healthy volunteers into vacutainer tubes containing sodium EDTA. Plasma was separated by centrifugation at 3000 g for 25 min at 4° C. and adjusted to a density of 1.020 g/mL with KBr. Triglyceride-rich lipoproteins (TGRL) and LDL fractions were then isolated by sequential centrifugation at 70,000 rpm at 4° C. in a Beckman LE-80 ultracentrifuge using a Beckman 50.4Ti rotor (Beckman Coulter, Inc., Fullerton, Calif.). The TGRL fraction (with a relative density of <1.020) was aspirated from the top of the centrifugate and discarded, leaving an LDL-enriched infranate (with a relative density of 1.020 to 1.063). The plasma LDL fraction was further fractionated into LDL1, LDL2, LDL3, and LDL4 (sdLDL) subfractions with relative densities of 1.020 to 1.035, 1.035 to 1.050, 1.050 to 1.063, and 1.063 to 1.075, respectively. The sdLDL subfraction was retained for additional experimentation. Plasma and lipoprotein fractions were maintained at 4° C. and protected from excessive exposure to light. Prior to oxidation experiments, EDTA was removed from the lipoprotein fraction using PD-10 desalting columns (GE Healthcare, Piscataway N.J.). After equilibration of the column with phosphate buffered saline (PBS), 2.5 mL of the lipoprotein fraction was loaded on the column and the flow-through discarded. The lipoprotein was then eluted with 3 mL of PBS. The LDL fractions were further diluted with PBS to obtain a 100 μg/mL apoB100 concentration.\nLDL and sdLDL subfractions (0.6 mL each) were incubated with either 10 μL vehicle (ethanol) or 10 μL drug stock solution for 30 min to 1 hr at 37° C. Oxidation was initiated by the addition of 10 μM CuSO4. After 2 hr, 100 μL aliquots were removed from each subfraction and combined with 1.0 mL thiobarbituric acid (0.5%), 10 μL trichloroacetic acid (5%), 10 μL BHT (5 mg/mL in methanol), and 10 μL EDTA (5 mM). […]. Sample TBARS concentrations were determined spectrophotometrically by measuring sample absorbances against a standard curve derived from the hydrolysis of 1,1,3,3-tetramethoxypropane."}, "[7]": {"test": "Small angle x-ray diffraction of glucose- and peroxidation-induced cholesterol domain formation (Example 4)", "conditions": "any time point (0, 72, 96 h), 1:30, glucose 200 mg/dL, vs control", "description": "After centrifugal orientation, sample supernatants were aspirated and aluminum foil substrates, each supporting a single membrane pellet, were removed from the sedimentation cells. […] All x-ray diffraction experiments were conducted at 20° C., 74% relative humidity.\nOriented membrane samples were aligned at grazing incidence with respect to a collimated, mono-chromatic CuKα x-ray beam (Kα1 and Kα2 unresolved; λ=1.54 Å) produced by a Rigaku Rotaflex RU-200, high-brilliance microfocus generator (Rigaku-MSC, The Woodlands, Tex.) as previously described (Mason et al., Biophys. J., vol. 55(4), pages 769-778 (1989)).\nRoutines written in Origin 8.6 (OriginLab Corporation, Northampton, Mass.) were used to determine total peak area (associated with all diffraction peaks in a given pattern) against which the second-order cholesterol domain peak was normalized."}}, "data": [{"smiles": "CC(C)c1c(C(=O)Nc2ccccc2O)c(-c2ccccc2)c(-c2ccc(F)cc2)n1CC[C@@H](O)C[C@@H](O)CC(=O)O", "note": "[ATM, Atorvastatin ortho- (o-) hydroxy (active) metabolite]", "values": [{"measurement": "antioxidant effect on glucose-induced LOOH formation", "setting": "[1]; 1.0 μM, 96 hours", "result": "potent antioxidant effects"}]}, {"smiles": "Cc1ccc(C)c(OCCCC(C)(C)C(=O)O)c1", "note": "[Gemfibrozil, gemfibrozil]", "values": [{"measurement": "effect on sdLDL oxidation", "setting": "human sdLDL [2]", "result": "no significant effect"}, {"measurement": "% change Vs control (cholesterol domain peak intensity)", "setting": "[3]", "result": "10.9 ± 43.3", "unit": "%"}, {"measurement": "effect on cholesterol domains", "setting": "[3]", "result": "no significant changes in cholesterol domain size"}, {"measurement": "effect on glucose-induced sdLDL oxidation", "setting": "sdLDL", "result": "did not inhibit"}, {"measurement": "effect on unfractionated LDL oxidation", "setting": "unfractionated LDL [4]", "result": "no significant effect"}]}, {"smiles": "CC1(C)[C@@H](O[C@H]2O[C@H](C(=O)O)[C@@H](O)[C@H](O)[C@H]2O[C@@H]2O[C@H](C(=O)O)[C@@H](O)[C@H](O)[C@H]2O)CC[C@]2(C)[C@H]3C(=O)C=C4[C@@H]5C[C@@](C)(C(=O)O)CC[C@]5(C)CC[C@@]4(C)[C@]3(C)CC[C@@H]12", "note": "[Glyc, glycyrrhizin]", "values": [{"measurement": "reduction in cholesterol domain peaks vs vehicle", "setting": "[3]", "result": 54.9, "unit": "%"}]}, {"smiles": "CC(C)c1c(C(=O)Nc2ccccc2)c(-c2ccccc2)c(-c2ccc(F)cc2)n1CC[C@@H](O)C[C@@H](O)CC(=O)O", "note": "[atorvastatin]", "values": [{"measurement": "effect on sdLDL oxidation", "setting": "human sdLDL [2]", "result": "did not have any significant antioxidant activity"}, {"measurement": "inhibition of sdLDL oxidation (TBARS formation)", "setting": "human sdLDL [2]; each agent at 10 μM, vs vehicle", "result": "0.1±7", "unit": "%"}, {"measurement": "effect on unfractionated LDL oxidation", "setting": "unfractionated LDL [4]", "result": "did not have any significant antioxidant activity"}]}, {"smiles": "Cc1c(C)c2c(c(C)c1O)CC[C@@](C)(CCC[C@H](C)CCC[C@H](C)CCCC(C)C)O2", "note": "[vitamin E, α-tocopherol]", "values": [{"measurement": "effect on sdLDL oxidation", "setting": "human sdLDL [2]", "result": "no significant effect"}, {"measurement": "effect on LDL oxidation", "setting": "unfractionated LDL [5]", "result": "did not inhibit LDL oxidation at any concentration"}, {"measurement": "effect on sdLDL oxidation", "setting": "human sdLDL [6]; 1.0 μM to 10.0 μM", "result": "did not inhibit sdLDL oxidation except at the highest concentration"}, {"measurement": "reduction of TBARS levels", "setting": "human sdLDL [6]; 10.0 μM, 10 μM CuSO4, vs vehicle", "result": 26, "unit": "%"}, {"measurement": "effect on glucose-induced sdLDL oxidation", "setting": "sdLDL", "result": "failed to inhibit sdLDL oxidation"}, {"measurement": "increase in sdLDL oxidation", "setting": "sdLDL; vs glucose-treated controls", "result": 63, "unit": "%"}, {"measurement": "effect on LOOH formation / lipid peroxidation", "setting": "[1]; 72- and 96-hour time points, 1:30 drug-to-phospholipid mole ratio", "result": "no significant effect"}, {"measurement": "effect on unfractionated LDL oxidation", "setting": "unfractionated LDL [4]", "result": "no significant effect"}, {"measurement": "effect on cholesterol domain formation", "setting": "[7]", "result": "no significant effect"}]}]}
